# Experimental data published in ChEMBL document CHEMBL5724914, “Linking interpersonal differences in gut microbiota composition and drug biotransformation activity” (2024).
# Test: (§1) The drug is tested on Z-029 corresponding to rat gut metagenome with ENA study accession number: PRJEB37062 and ENA sample accession number: ERS12561828 for biotransformation under anaerobic condition. The drug concentrations were measured over 9 timepoints collected between 0 and 24 hours of incubation by liquid-chromatography-coupled mass spectrometry (LC–MS)
# Conditions: 2 µM
# Further: call rule not given here.
row,SMILES,Bacterial Biotransformation
1,CCc1oc2ccccc2c1C(=O)c1cc(Br)c(O)c(Br)c1 [BENZBROMARONE],Compound NOT metabolized
2,CC(NC(C)(C)C)C(=O)c1cccc(Cl)c1 (stereo not given) [BUPROPION],Compound NOT metabolized
3,O=C1CC2(CCCC2)CC(=O)N1CCCCN1CCN(c2ncccn2)CC1 [BUSPIRONE],Compound NOT metabolized
4,CCCC(C)(COC(N)=O)COC(=O)NC(C)C (stereo not given) [CARISOPRODOL],Compound NOT metabolized

# Test: as §1, with “Z-027” for “Z-029”, “to” for “to rat gut”, “ERS12561826” for “ERS12561828”
# Conditions: 2 µM
row,SMILES,Bacterial Biotransformation
1,CCc1oc2ccccc2c1C(=O)c1cc(Br)c(O)c(Br)c1 [BENZBROMARONE],Compound NOT metabolized
2,CC(NC(C)(C)C)C(=O)c1cccc(Cl)c1 (stereo not given) [BUPROPION],Compound NOT metabolized
3,O=C1CC2(CCCC2)CC(=O)N1CCCCN1CCN(c2ncccn2)CC1 [BUSPIRONE],Compound NOT metabolized
4,CCCC(C)(COC(N)=O)COC(=O)NC(C)C (stereo not given) [CARISOPRODOL],Compound metabolized

# Test: as §1, with “on Z-024” for “on Z-029”, “to pig” for “to rat”, “number: ERS12561823” for “number: ERS12561828”
# Conditions: 2 µM
row,SMILES,Bacterial Biotransformation
1,CCc1oc2ccccc2c1C(=O)c1cc(Br)c(O)c(Br)c1 [BENZBROMARONE],Compound NOT metabolized
2,CC(NC(C)(C)C)C(=O)c1cccc(Cl)c1 (stereo not given) [BUPROPION],Compound NOT metabolized
3,O=C1CC2(CCCC2)CC(=O)N1CCCCN1CCN(c2ncccn2)CC1 [BUSPIRONE],Compound NOT metabolized
4,CCCC(C)(COC(N)=O)COC(=O)NC(C)C (stereo not given) [CARISOPRODOL],Compound metabolized

# Test: as §1, with “on Z-016” for “on Z-029”, “to mouse” for “to rat”, “number: ERS12561815” for “number: ERS12561828”
# Conditions: 2 µM
row,SMILES,Bacterial Biotransformation
1,CCc1oc2ccccc2c1C(=O)c1cc(Br)c(O)c(Br)c1 [BENZBROMARONE],Compound NOT metabolized
2,CC(NC(C)(C)C)C(=O)c1cccc(Cl)c1 (stereo not given) [BUPROPION],Compound NOT metabolized
3,O=C1CC2(CCCC2)CC(=O)N1CCCCN1CCN(c2ncccn2)CC1 [BUSPIRONE],Compound NOT metabolized
4,CCCC(C)(COC(N)=O)COC(=O)NC(C)C (stereo not given) [CARISOPRODOL],Compound metabolized

# Test: as §1, with “Z-012” for “Z-029”, “to” for “to rat gut”, “ERS12561812” for “ERS12561828”
# Conditions: 2 µM
row,SMILES,Bacterial Biotransformation
1,CCc1oc2ccccc2c1C(=O)c1cc(Br)c(O)c(Br)c1 [BENZBROMARONE],Compound NOT metabolized
2,CC(NC(C)(C)C)C(=O)c1cccc(Cl)c1 (stereo not given) [BUPROPION],Compound NOT metabolized
3,O=C1CC2(CCCC2)CC(=O)N1CCCCN1CCN(c2ncccn2)CC1 [BUSPIRONE],Compound NOT metabolized
4,CCCC(C)(COC(N)=O)COC(=O)NC(C)C (stereo not given) [CARISOPRODOL],Compound metabolized

# Test: as §1, with “on Z-011” for “on Z-029”, “to mouse” for “to rat”, “number: ERS12561811” for “number: ERS12561828”
# Conditions: 2 µM
row,SMILES,Bacterial Biotransformation
1,CCc1oc2ccccc2c1C(=O)c1cc(Br)c(O)c(Br)c1 [BENZBROMARONE],Compound metabolized
2,CC(NC(C)(C)C)C(=O)c1cccc(Cl)c1 (stereo not given) [BUPROPION],Compound NOT metabolized
3,O=C1CC2(CCCC2)CC(=O)N1CCCCN1CCN(c2ncccn2)CC1 [BUSPIRONE],Compound NOT metabolized
4,CCCC(C)(COC(N)=O)COC(=O)NC(C)C (stereo not given) [CARISOPRODOL],Compound metabolized

# Test: as §1, with “on Z-002” for “on Z-029”, “to rabbit” for “to rat”, “number: ERS12561802” for “number: ERS12561828”
# Conditions: 2 µM
row,SMILES,Bacterial Biotransformation
1,CCc1oc2ccccc2c1C(=O)c1cc(Br)c(O)c(Br)c1 [BENZBROMARONE],Compound metabolized
2,CC(NC(C)(C)C)C(=O)c1cccc(Cl)c1 (stereo not given) [BUPROPION],Compound NOT metabolized
3,O=C1CC2(CCCC2)CC(=O)N1CCCCN1CCN(c2ncccn2)CC1 [BUSPIRONE],Compound metabolized
4,CCCC(C)(COC(N)=O)COC(=O)NC(C)C (stereo not given) [CARISOPRODOL],Compound metabolized

# Test: as §1, with “on WLS-240” for “on Z-029”, “to human” for “to rat”, “number: ERS12561773” for “number: ERS12561828”
# Conditions: 2 µM
row,SMILES,Bacterial Biotransformation
1,CCc1oc2ccccc2c1C(=O)c1cc(Br)c(O)c(Br)c1 [BENZBROMARONE],Compound metabolized
2,CC(NC(C)(C)C)C(=O)c1cccc(Cl)c1 (stereo not given) [BUPROPION],Compound NOT metabolized
3,O=C1CC2(CCCC2)CC(=O)N1CCCCN1CCN(c2ncccn2)CC1 [BUSPIRONE],Compound metabolized
4,CCCC(C)(COC(N)=O)COC(=O)NC(C)C (stereo not given) [CARISOPRODOL],Compound metabolized

# Test: as §1, with “on WLS-098” for “on Z-029”, “to human” for “to rat”, “number: ERS12561754” for “number: ERS12561828”
# Conditions: 2 µM
row,SMILES,Bacterial Biotransformation
1,CCc1oc2ccccc2c1C(=O)c1cc(Br)c(O)c(Br)c1 [BENZBROMARONE],Compound metabolized
2,CC(NC(C)(C)C)C(=O)c1cccc(Cl)c1 (stereo not given) [BUPROPION],Compound NOT metabolized
3,O=C1CC2(CCCC2)CC(=O)N1CCCCN1CCN(c2ncccn2)CC1 [BUSPIRONE],Compound metabolized
4,CCCC(C)(COC(N)=O)COC(=O)NC(C)C (stereo not given) [CARISOPRODOL],Compound metabolized

# Test: as §1, with “on WLS-069” for “on Z-029”, “to human” for “to rat”, “number: ERS12561748” for “number: ERS12561828”
# Conditions: 2 µM
row,SMILES,Bacterial Biotransformation
1,CCc1oc2ccccc2c1C(=O)c1cc(Br)c(O)c(Br)c1 [BENZBROMARONE],Compound metabolized
2,CC(NC(C)(C)C)C(=O)c1cccc(Cl)c1 (stereo not given) [BUPROPION],Compound NOT metabolized
3,O=C1CC2(CCCC2)CC(=O)N1CCCCN1CCN(c2ncccn2)CC1 [BUSPIRONE],Compound metabolized
4,CCCC(C)(COC(N)=O)COC(=O)NC(C)C (stereo not given) [CARISOPRODOL],Compound metabolized

# Test: as §1, with “on WLS-038” for “on Z-029”, “to human” for “to rat”, “number: ERS12561745” for “number: ERS12561828”
# Conditions: 2 µM
row,SMILES,Bacterial Biotransformation
1,CCc1oc2ccccc2c1C(=O)c1cc(Br)c(O)c(Br)c1 [BENZBROMARONE],Compound metabolized
2,CC(NC(C)(C)C)C(=O)c1cccc(Cl)c1 (stereo not given) [BUPROPION],Compound NOT metabolized
3,O=C1CC2(CCCC2)CC(=O)N1CCCCN1CCN(c2ncccn2)CC1 [BUSPIRONE],Compound NOT metabolized
4,CCCC(C)(COC(N)=O)COC(=O)NC(C)C (stereo not given) [CARISOPRODOL],Compound metabolized

# Conditions: human gut metagenome, 24 h, 2 µM
row,SMILES,Bacterial Biotransformation
1,CCc1oc2ccccc2c1C(=O)c1cc(Br)c(O)c(Br)c1 [BENZBROMARONE],Compound NOT metabolized
2,CC(NC(C)(C)C)C(=O)c1cccc(Cl)c1 (stereo not given) [BUPROPION],Compound NOT metabolized
3,O=C1CC2(CCCC2)CC(=O)N1CCCCN1CCN(c2ncccn2)CC1 [BUSPIRONE],Compound NOT metabolized
4,CCCC(C)(COC(N)=O)COC(=O)NC(C)C (stereo not given) [CARISOPRODOL],Compound metabolized

# Conditions: human gut metagenome, 24 h, 2 µM
# Remark: another data set of the same source
row,SMILES,Bacterial Biotransformation
1,CCc1oc2ccccc2c1C(=O)c1cc(Br)c(O)c(Br)c1 [BENZBROMARONE],Compound metabolized
2,CC(NC(C)(C)C)C(=O)c1cccc(Cl)c1 (stereo not given) [BUPROPION],Compound NOT metabolized
3,O=C1CC2(CCCC2)CC(=O)N1CCCCN1CCN(c2ncccn2)CC1 [BUSPIRONE],Compound NOT metabolized
4,CCCC(C)(COC(N)=O)COC(=O)NC(C)C (stereo not given) [CARISOPRODOL],Compound metabolized

# Conditions: human gut metagenome, 24 h, 2 µM
# Remark: another data set of the same source
row,SMILES,Bacterial Biotransformation
1,CCc1oc2ccccc2c1C(=O)c1cc(Br)c(O)c(Br)c1 [BENZBROMARONE],Compound metabolized
2,CC(NC(C)(C)C)C(=O)c1cccc(Cl)c1 (stereo not given) [BUPROPION],Compound NOT metabolized
3,O=C1CC2(CCCC2)CC(=O)N1CCCCN1CCN(c2ncccn2)CC1 [BUSPIRONE],Compound NOT metabolized
4,CCCC(C)(COC(N)=O)COC(=O)NC(C)C (stereo not given) [CARISOPRODOL],Compound metabolized

# Conditions: human gut metagenome, 24 h, 2 µM
# Remark: another data set of the same source
row,SMILES,Bacterial Biotransformation
1,CCc1oc2ccccc2c1C(=O)c1cc(Br)c(O)c(Br)c1 [BENZBROMARONE],Compound metabolized
2,CC(NC(C)(C)C)C(=O)c1cccc(Cl)c1 (stereo not given) [BUPROPION],Compound NOT metabolized
3,O=C1CC2(CCCC2)CC(=O)N1CCCCN1CCN(c2ncccn2)CC1 [BUSPIRONE],Compound metabolized
4,CCCC(C)(COC(N)=O)COC(=O)NC(C)C (stereo not given) [CARISOPRODOL],Compound metabolized

# Conditions: human gut metagenome, 24 h, 2 µM
# Remark: another data set of the same source
row,SMILES,Bacterial Biotransformation
1,CCc1oc2ccccc2c1C(=O)c1cc(Br)c(O)c(Br)c1 [BENZBROMARONE],Compound metabolized
2,CC(NC(C)(C)C)C(=O)c1cccc(Cl)c1 (stereo not given) [BUPROPION],Compound NOT metabolized
3,O=C1CC2(CCCC2)CC(=O)N1CCCCN1CCN(c2ncccn2)CC1 [BUSPIRONE],Compound metabolized
4,CCCC(C)(COC(N)=O)COC(=O)NC(C)C (stereo not given) [CARISOPRODOL],Compound NOT metabolized

# Conditions: human gut metagenome, 24 h, 2 µM
# Remark: another data set of the same source
row,SMILES,Bacterial Biotransformation
1,CCc1oc2ccccc2c1C(=O)c1cc(Br)c(O)c(Br)c1 [BENZBROMARONE],Compound metabolized
2,CC(NC(C)(C)C)C(=O)c1cccc(Cl)c1 (stereo not given) [BUPROPION],Compound NOT metabolized
3,O=C1CC2(CCCC2)CC(=O)N1CCCCN1CCN(c2ncccn2)CC1 [BUSPIRONE],Compound metabolized
4,CCCC(C)(COC(N)=O)COC(=O)NC(C)C (stereo not given) [CARISOPRODOL],Compound metabolized

# Conditions: human gut metagenome, 24 h, 2 µM
# Remark: another data set of the same source
row,SMILES,Bacterial Biotransformation
1,CCc1oc2ccccc2c1C(=O)c1cc(Br)c(O)c(Br)c1 [BENZBROMARONE],Compound metabolized
2,CC(NC(C)(C)C)C(=O)c1cccc(Cl)c1 (stereo not given) [BUPROPION],Compound NOT metabolized
3,O=C1CC2(CCCC2)CC(=O)N1CCCCN1CCN(c2ncccn2)CC1 [BUSPIRONE],Compound NOT metabolized
4,CCCC(C)(COC(N)=O)COC(=O)NC(C)C (stereo not given) [CARISOPRODOL],Compound metabolized

# Conditions: human gut metagenome, 24 h, 2 µM
# Remark: another data set of the same source
row,SMILES,Bacterial Biotransformation
1,CCc1oc2ccccc2c1C(=O)c1cc(Br)c(O)c(Br)c1 [BENZBROMARONE],Compound NOT metabolized
2,CC(NC(C)(C)C)C(=O)c1cccc(Cl)c1 (stereo not given) [BUPROPION],Compound NOT metabolized
3,O=C1CC2(CCCC2)CC(=O)N1CCCCN1CCN(c2ncccn2)CC1 [BUSPIRONE],Compound NOT metabolized
4,CCCC(C)(COC(N)=O)COC(=O)NC(C)C (stereo not given) [CARISOPRODOL],Compound NOT metabolized

# Conditions: human gut metagenome, 24 h, 2 µM
# Remark: another data set of the same source
row,SMILES,Bacterial Biotransformation
1,CCc1oc2ccccc2c1C(=O)c1cc(Br)c(O)c(Br)c1 [BENZBROMARONE],Compound metabolized
2,CC(NC(C)(C)C)C(=O)c1cccc(Cl)c1 (stereo not given) [BUPROPION],Compound NOT metabolized
3,O=C1CC2(CCCC2)CC(=O)N1CCCCN1CCN(c2ncccn2)CC1 [BUSPIRONE],Compound metabolized
4,CCCC(C)(COC(N)=O)COC(=O)NC(C)C (stereo not given) [CARISOPRODOL],Compound metabolized
